Measurements reported in patent US9980482B2, “Synergistic compositions with plant protection agents” (multiBIND biotec GmbH, priority 2013, dated 2018).

Key:
[1] = test system: Candida parapsilosis and spores of Aspergillus niger; test: summary of tests with Candida parapsilosis and spores of Aspergillus niger; format: cell-based; set-up: key to synergistic effect in mixtures: + = low but significant; ++ = good; +++ = very good; details: for concentration without sufficient antimicrobial activity: conventional plant protection agent alone; for synergistic effect in mixtures: plant protection agent in mixtures (M1-M7, Table 2)
Protocol: (§1) A specific in vitro test system was designed with certified tester strains from Candida parapsilosis (DSM 70125) and spores from Aspergillus niger (DSM 1957) to define antimicrobial activities and synergistic effects. In all experiments freshly grown cultures of the listed microorganisms were adjusted to a cell number of about 10^5 in a 200 μl volume of the test solutions. Test solutions are in general: a) sterile water (H2O) as a negative control, b) conventional plant protection agent alone c) specific mixtures of essential oils, detergents, metal ions and organic acids, d) a plant protection composition according to the invention.
(§2) After a residence time of 15 min. (Candida parapsilosis) or 60 min. (Aspergillus niger) at room temperature the 200 μl samples containing the microorganisms and the test solutions were diluted and were plated in dilutions of 0, 10^−1 and 10^−2 with aliquots of 10 μl each onto growth media. After an incubation period of 2-5 days at 30° C. the grown colonies were determined and documented by digital photography.

[2] = test system: Candida parapsilosis (DSM 70125); test: in vitro test of antimicrobial activity and synergistic effects on suspension cultures of Candida parapsilosis; format: cell-based; details: FIG. 4; for antimicrobial activities against Candida parapsilosis: agent alone at three concentrations (0.05%, 0.025%, 0.01%); for synergistic effect against Candida parapsilosis: in combination with mixture M1, all three concentrations (0.05%, 0.025%, 0.01%)
Protocol: as §1, §2

Compound	concentration without sufficient antimicrobial activity [1]	synergistic effect in mixtures [1]	antimicrobial activities against Candida parapsilosis [2]	synergistic effect against Candida parapsilosis [2]
OC(Cc1ccccc1Cl)(Cn1nc[nH]c1=S)C1(Cl)CC1 (centres unmarked) [F2, Prothioconazole]	0.05%	+		
Mancozeb [F4]	0.05%	+++	do not show sufficient antimicrobial activities	show synergistic effects
[Cl-].[Cu+2].[Cu+2].[OH-].[OH-].[OH-] [F7, Copperoxychlorid]	0.05%	++		
CO/C=C(/C(=O)OC)c1ccccc1Oc1cc(Oc2ccccc2C#N)ncn1 [F6, Azoxystrobin]	0.07%	+		
N#Cc1c(Cl)c(Cl)c(Cl)c(C#N)c1Cl [F5, Chlorothalonil]	0.05%	++	do not show sufficient antimicrobial activities	show synergistic effects
CCCOC(=O)NCCCN(C)C [F1, Propamocarb]	0.05%	+		
CCNC(=O)NC(=O)/C(C#N)=N/OC [F3, Curzate]	0.01%	+++	do not show sufficient antimicrobial activities	show synergistic effects
